From patent publication US20230203043A1, “NOVEL IMIDAZOPYRAZINE DERIVATIVES” (Hoffmann-La Roche Inc., priority 2020, published 2023)
Structures can show the parent of a compound that is named as a salt.

tested on: Acinetobacter baumannii ATCC17961; experiment: Antimicrobial susceptibility testing: 90% growth inhibitory concentration (IC90) determination in Iso-Sensitest broth, OD600 growth; format: cell-based; conditions: Acinetobacter baumannii, ATCC17961, 16 h, read-out: A. baumannii ATCC 17961 IC90 (uM), strain ATCC 17961, OD600 growth over 16 h
Procedure, shortened: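 Compounds were twofold serially diluted in DMSO across 10 points (e.g. 50 to 0.097 μM final) and inoculated at ~5×10^(5) CFU/ml. Plates incubated at 35±2° C, with OD600 read every 20 minutes over 16 h. IC90 was derived from growth inhibition during logarithmic growth.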

Compound | IC90 [µM]
Cc1cc(Nc2nccn3c(-c4cn(CC#N)nc4C(F)(F)F)cnc23)cc(F)c1C(=O)N1CCN(C(=O)[C@@H]2C[C@@H](O)CN2)CC1 [Example 721, 2-(4-(8-((3-fluoro-4-(4-((2S,4R)-4-hydroxypyrrolidine-2-carbonyl)piperazine-1-carbonyl)-5-methylphenyl)amino)imidazo[1,2-a]pyrazin-3-yl)-3-(trifluoromethyl)-1H-pyrazol-1-yl) acetonitrile formate] | 0.452
Cc1cc(Nc2nccn3c(-c4cn(CC#N)nc4C(F)(F)F)cnc23)cc(F)c1C(=O)N[C@H](C)CNC(=O)[C@H](C)N [Example 722, N-((R)-1-((S)-2-aminopropanamido)propan-2-yl)-4-((3-(1-(cyanomethyl)-3-(trifluoromethyl)-1H-pyrazol-4-yl)imidazo[1,2-a]pyrazin-8-yl)amino)-2-fluoro-6-methylbenzamide formate] | 0.458
N#CCn1cc(-c2cnc3c(Nc4ccc(C(=O)NCC(=O)N[C@@H]5CCNC5)c(Cl)c4)nccn23)c(C(F)(F)F)n1 [Example 723, 2-chloro-4-[[3-[1-(cyanomethyl)-3-(trifluoromethyl)pyrazol-4-yl]imidazo[1,2-a]pyrazin-8-yl]amino]-N-[2-oxo-2-[[(3R)-pyrrolidin-3-yl]amino]ethyl]benzamide formate] | 0.459
Cc1cc(Nc2nccn3c(-c4cn(CC#N)nc4C(F)(F)F)cnc23)ccc1C(=O)N[C@H](C)C(=O)NC1CC(N)C1 (stereo partly drawn) [Example 725, N-[(1R)-2[(3-aminocyclobutyl)amino]-1-methyl-2-oxo-ethyl]-4-[[3-[1-(cyanomethyl)-3-(trifluoromethyl)pyrazol-4-yl]imidazo[1,2-a]pyrazin-8-yl]amino]-2-methyl-benzamide formate] | 0.462
Cc1cc(Nc2nccn3c(-c4cn(CC#N)nc4C(F)(F)F)cnc23)ccc1C(=O)N[C@H](C)C(=O)N1CCNCC1 [Example 726, 4-[[3-[1-(cyanomethyl)-3-(trifluoromethyl)pyrazol-4-yl]imidazo[1,2-a]pyrazin-8-yl]amino]-2-methyl-N-[(1R)-1-methyl-2-oxo-2-piperazin-1-yl-ethyl]benzamide formate] | 0.463
N#CCn1cc(-c2cnc3c(Nc4ccc(C(=O)NCC(=O)N[C@H]5CCNC5)c(Cl)c4)nccn23)c(C(F)(F)F)n1 [Example 731, 2-chloro-4-[[3-[1-(cyanomethyl)-3-(trifluoromethyl)pyrazol-4-yl]imidazo[1,2-a]pyrazin-8-yl]amino]-N-[2-oxo-2-[[(3S)-pyrrolidin-3-yl]amino]ethyl]benzamide formate] | 0.476
CCc1cc(Nc2nccn3c(-c4cn(CC#N)nc4C(F)(F)F)cnc23)ccc1C(=O)N[C@H](C)C(=O)N1CC[C@@H](N)C1 [Example 732, N-[(1R)-2-[(3R)-3-aminopyrrolidin-1-yl]-1-methyl-2-oxo-ethyl]-4-[[3-[1-(cyanomethyl)-3-(trifluoromethyl)pyrazol-4-yl]imidazo[1,2-a]pyrazin-8-yl]amino]-2-ethyl-benzamide formate] | 0.48
CCc1cc(Nc2nccn3c(-c4cn(CC#N)nc4C(F)(F)F)cnc23)ccc1C(=O)N[C@H](C)C(=O)N1CC[C@H](N)C1 [Example 736, N-[(1R)-2-[(3S)-3-aminopyrrolidin-1-yl]-1-methyl-2-oxo-ethyl]-4-[[3-[1-(cyanomethyl)-3-(trifluoromethyl)pyrazol-4-yl]imidazo[1,2-a]pyrazin-8-yl]amino]-2-ethyl-benzamide formate] | 0.49
CCc1cc(Nc2nccn3c(-c4cn(CCF)nc4C(F)(F)F)cnc23)ccc1C(=O)NCCOCCN1CCOCC1 [Example 737, 2-ethyl-4-((3-(1-(2-fluoroethyl)-3-(trifluoromethyl)-1H-pyrazol-4-yl)imidazo[1,2-a]pyrazin-8-yl)amino)-N-(2-(2-morpholinoethoxy)ethyl)benzamide formate] | 0.495
Cc1cc(Nc2nccn3c(-c4cn(CC#N)nc4C(F)(F)F)cnc23)ccc1C(=O)N[C@H](C)C(=O)N[C@H]1CCNC1 [Example 738, 4-[[3-[1-(cyanomethyl)-3-(trifluoromethyl)pyrazol-4-yl]imidazo[1,2-a]pyrazin-8-yl]amino]-2-methyl-N-[(1R)-1-methyl-2-oxo-2-[[(3S)-pyrrolidin-3-yl]amino]ethyl]benzamide formate] | 0.526
Cc1cc(Nc2nccn3c(-c4cn(CC#N)nc4C(F)(F)F)cnc23)ccc1C(=O)NCC(=O)N1CC[C@H](N)C1 [Example 739, N-[2-[(3S)-3-aminopyrrolidin-1-yl]-2-oxo-ethyl]-4-[[3-[1-(cyanomethyl)-3-(trifluoromethyl)pyrazol-4-yl]imidazo[1,2-a]pyrazin-8-yl]amino]-2-methyl-benzamide formate] | 0.527
Cc1cc(Nc2nccn3c(-c4cn(CC#N)nc4C(F)(F)F)cnc23)cc(F)c1C(=O)N[C@H](C)CNC(=O)C1CCNCC1 [Example 741, (R)-N-(2-(4-((3-(1-(cyanomethyl)-3-(trifluoromethyl)-1H-pyrazol-4-yl)imidazo[1,2-a]pyrazin-8-yl)amino)-2-fluoro-6-methylbenzamido)propyl)piperidine-4-carboxamide formate] | 0.53

same assay, conditions: Acinetobacter baumannii, ATCC17961, 16 h, strain ATCC 17961, OD600 growth over 16 h, read-out: A. baumannii ATCC 17961 IC90

IC90 [µM] | Compound
0.435 | Cc1cc(Nc2nccn3c(-c4cn(CC#N)nc4C(F)(F)F)cnc23)cc(F)c1C(=O)N[C@H](C)CN [Example 719, (R)-N-(1-aminopropan-2-yl)-4-((3-(1-(cyanomethyl)-3-(trifluoromethyl)-1H-pyrazol-4-yl)imidazo[1,2-a]pyrazin-8-yl)amino)-2-fluoro-6-methylbenzamide]
0.441 | Cc1cc(Nc2nccn3c(-c4cn(CC#N)nc4C(F)(F)F)cnc23)cc(F)c1C(=O)N[C@H](C)CNC(=O)[C@H]1[C@@H]2CNC[C@@H]21 [Example 720, (1R,5S,6r)-N-((R)-2-(4-((3-(1-(cyanomethyl)-3-(trifluoromethyl)-1H-pyrazol-4-yl)imidazo[1,2-a]pyrazin-8-yl)amino)-2-fluoro-6-methylbenzamido)propyl)-3-azabicyclo[3.1.0] hexane-6-carboxamide formate]
0.459 | CCc1cc(Nc2nccn3c(-c4c[nH]nc4C(F)(F)F)cnc23)ccc1C(=O)NCCNC(=O)[C@H]1CC[C@@H](N)C1 [Example 724, N-(2-((1S,3R)-3-aminocyclopentane-1-carboxamido)ethyl)-2-ethyl-4-((3-(3-(trifluoromethyl)-1H-pyrazol-4-yl)imidazo[1,2-a]pyrazin-8-yl)amino)benzamide]
0.465 | CCc1cc(Nc2nccn3c(-c4cn(CC(F)F)nc4C(F)(F)F)cnc23)ccc1C(=O)NCCCNC(=O)[C@@H]1C[C@@H](O)CN1 [Example 727, (2S,4R)-N-(3-(4-((3-(1-(2,2-difluoroethyl)-3-(trifluoromethyl)-1H-pyrazol-4-yl)imidazo[1,2-a]pyrazin-8-yl)amino)-2-ethylbenzamido)propyl)-4-hydroxypyrrolidine-2-carboxamide]
0.473 | CCc1cc(Nc2nccn3c(-c4cn(CC(F)F)nc4C(F)(F)F)cnc23)ccc1C(=O)NCC(=O)NCCN [Example 729, N-[2-(2-aminoethylamino)-2-oxo-ethyl]-4-[[3-[1-(2,2-difluoroethyl)-3-(trifluoromethyl)pyrazol-4-yl]imidazo[1,2-a]pyrazin-8-yl]amino]-2-ethyl-benzamide]
0.475 | C#CCn1cc(-c2cnc3c(Nc4ccc(C(=O)N5CCN(C(=O)C6CCNCC6)CC5)c(CC)c4)nccn23)c(C(F)F)n1 [Example 730, (4-(4-((3-(3-(difluoromethyl)-1-(prop-2-yn-1-yl)-1H-pyrazol-4-yl)imidazo[1,2-a]pyrazin-8-yl)amino)-2-ethylbenzoyl)piperazin-1-yl)(piperidin-4-yl) methanone]
0.481 | CCc1cc(Nc2nccn3c(-c4cn(CC(F)F)nc4C(F)(F)F)cnc23)ccc1C(=O)NCC(=O)N1CC(N)C1 [Example 733, N-[2-(3-aminoazetidin-1-yl)-2-oxo-ethyl]-4-[[3-[1-(2,2-difluoroethyl)-3-(trifluoromethyl)pyrazol-4-yl]imidazo[1,2-a]pyrazin-8-yl]amino]-2-ethyl-benzamide]
0.489 | C#CCn1cc(-c2cnc3c(Nc4ccc(C(=O)N5CCN(C(=O)[C@H]6C[C@H](N)C6)CC5)c(CC)c4)nccn23)c(C(F)F)n1 [Example 734, (4-((1r,3r)-3-aminocyclobutane-1-earbonyl)piperazin-1-yl)(4-((3-(3-(difluoromethyl)-1-(prop-2-yn-1-yl)-1H-pyrazol-4-yl)imidazo[1,2-a]pyrazin-8-yl)amino)-2-ethylphenyl)methanone]
0.49 | Cc1cc(Nc2nccn3c(-c4cn(CCF)nc4C(F)(F)F)cnc23)cc(F)c1C(=O)N[C@H](C)CN [Example 735, (R)-N-(1-aminopropan-2-yl)-2-fluoro-4-((3-(1-(2-fluoroethyl)-3-(trifluoromethyl)-1H-pyrazol-4-yl)imidazo[1,2-a]pyrazin-8-yl)amino)-6-methylbenzamide]
0.529 | CCc1cc(Nc2nccn3c(-c4c[nH]nc4C(F)(F)F)cnc23)ccc1C(=O)NCCNC(=O)[C@H]1C[C@@H](N)C1 [Example 740, N-(2-((1s,3s)-3-aminocyclobutane-1-carboxamido)ethyl)-2-ethyl-4-((3-(3-(trifluoromethyl)-1H-pyrazol-4-yl)imidazo[1,2-a]pyrazin-8-yl)amino)benzamide]
0.53 | CCc1cc(Nc2nccn3c(-c4cn(CC(F)F)nc4C(F)F)cnc23)ccc1C(=O)N1CCN(C(=O)C2CCNCC2)CC1 [Example 742, (4-(4-((3-(1-(2,2-difluoroethyl)-3-(difluoromethyl)-1H-pyrazol-4-yl)imidazo[1,2-a]pyrazin-8-yl)amino)-2-ethylbenzoyl)piperazin-1-yl)(piperidin-4-yl) methanone]
